Source: PubChem BioAssay (NCI)
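A five-concentration, 48-hour dose response in 96-well plates underlies each endpoint, interpolated linearly between surrounding concentrations. Here, GI50 denotes the concentration required for 50% inhibition of growth. TGI denotes the concentration required for complete inhibition of growth.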

What was measured:
Experiment in all cases: growth of human tumour cells (NCI), 48 h
UACC-62 melanoma = test system: UACC-62 melanoma
PC-3 prostate = test system: PC-3 prostate
NCI-H460 lung = test system: NCI-H460 lung
TK-10 renal = test system: TK-10 renal
SK-OV-3 ovarian = test system: SK-OV-3 ovarian
NCI/ADR-RES ovarian = test system: NCI/ADR-RES ovarian
MOLT-4 leukemia = test system: MOLT-4 leukemia
A498 renal = test system: A498 renal
COLO 205 colon = test system: COLO 205 colon
HOP-62 NSCLC = test system: HOP-62 NSCLC
A549 NSCLC = test system: A549 NSCLC
SR leukemia = test system: SR leukemia
SF-539 CNS = test system: SF-539 CNS
LOX IMVI melanoma = test system: LOX IMVI melanoma
ACHN renal = test system: ACHN renal
HCT-116 colon = test system: HCT-116 colon
M14 melanoma = test system: M14 melanoma
NCI-H522 lung = test system: NCI-H522 lung
SNB-19 CNS = test system: SNB-19 CNS
SW-620 colon = test system: SW-620 colon
DU-145 prostate = test system: DU-145 prostate
HCT-15 colon = test system: HCT-15 colon
IGROV1 ovarian = test system: IGROV1 ovarian
NCI-H23 lung = test system: NCI-H23 lung
HCC-2998 colon = test system: HCC-2998 colon
MDA-MB-435 = test system: MDA-MB-435
SF-268 CNS = test system: SF-268 CNS
BT-549 breast = test system: BT-549 breast
OVCAR-5 ovarian = test system: OVCAR-5 ovarian
CAKI-1 renal = test system: CAKI-1 renal
OVCAR-8 ovarian = test system: OVCAR-8 ovarian
786-0 renal = test system: 786-0 renal
CCRF-CEM leukemia = test system: CCRF-CEM leukemia
HS 578T breast = test system: HS 578T breast
RXF 393 renal = test system: RXF 393 renal
RPMI-8226 leukemia = test system: RPMI-8226 leukemia
OVCAR-3 ovarian = test system: OVCAR-3 ovarian
T-47D breast = test system: T-47D breast
HT29 colon = test system: HT29 colon
UO-31 renal = test system: UO-31 renal
SK-MEL-5 melanoma = test system: SK-MEL-5 melanoma
MDA-MB-231 breast = test system: MDA-MB-231 breast
HL-60(TB) leukemia = test system: HL-60(TB) leukemia
UACC-257 melanoma = test system: UACC-257 melanoma
SNB-75 CNS = test system: SNB-75 CNS
MCF7 breast = test system: MCF7 breast
EKVX NSCLC = test system: EKVX NSCLC
NCI-H226 lung = test system: NCI-H226 lung
SK-MEL-28 melanoma = test system: SK-MEL-28 melanoma
K-562 leukemia = test system: K-562 leukemia
SF-295 CNS = test system: SF-295 CNS
SN12C renal = test system: SN12C renal
U251 CNS = test system: U251 CNS
MALME-3M melanoma = test system: MALME-3M melanoma
KM12 colon = test system: KM12 colon

For `CC(=O)Nc1nc(SCc2ccccc2)c2ncn(C(C)=O)c2n1`, the GI50 (UACC-62 melanoma) was 61.8 µM, the TGI (UACC-62 melanoma) was > 100 µM and the GI50 (PC-3 prostate) was 72.2 µM. The TGI (PC-3 prostate) was > 100 µM, the GI50 (NCI-H460 lung) was > 100 µM and the TGI (NCI-H460 lung) was > 100 µM. It also gave a GI50 (TK-10 renal) of 23.4 µM, a TGI (TK-10 renal) of 78.3 µM and a GI50 (SK-OV-3 ovarian) of 55.9 µM. For the same compound, the TGI (SK-OV-3 ovarian) was > 100 µM, the GI50 (NCI/ADR-RES ovarian) was 99.3 µM and the TGI (NCI/ADR-RES ovarian) was > 100 µM. For the same compound, the GI50 (MOLT-4 leukemia) was > 100 µM, the TGI (MOLT-4 leukemia) was > 100 µM and the GI50 (A498 renal) was 30.9 µM. For the same compound, the TGI (A498 renal) was > 100 µM, the GI50 (COLO 205 colon) was > 100 µM and the TGI (COLO 205 colon) was > 100 µM. For the same compound, the GI50 (HOP-62 NSCLC) was 62.7 µM, the TGI (HOP-62 NSCLC) was > 100 µM and the GI50 (A549 NSCLC) was > 100 µM. The TGI (A549 NSCLC) was > 100 µM, the GI50 (SR leukemia) was > 100 µM and the TGI (SR leukemia) was > 100 µM. The GI50 (SF-539 CNS) was 97.7 µM, the TGI (SF-539 CNS) was > 100 µM and the GI50 (LOX IMVI melanoma) was 75.1 µM. For the same compound, the TGI (LOX IMVI melanoma) was > 100 µM, the GI50 (ACHN renal) was 61.6 µM and the TGI (ACHN renal) was > 100 µM. The GI50 (HCT-116 colon) was > 100 µM, the TGI (HCT-116 colon) was > 100 µM and the GI50 (M14 melanoma) was 88.6 µM. For the same compound, the TGI (M14 melanoma) was > 100 µM, the GI50 (NCI-H522 lung) was 72.6 µM and the TGI (NCI-H522 lung) was > 100 µM. For the same compound, the GI50 (SNB-19 CNS) was > 100 µM, the TGI (SNB-19 CNS) was > 100 µM and the GI50 (SW-620 colon) was > 100 µM. The TGI (SW-620 colon) was > 100 µM, the GI50 (DU-145 prostate) was > 100 µM and the TGI (DU-145 prostate) was > 100 µM. The GI50 (HCT-15 colon) was 93 µM, the TGI (HCT-15 colon) was > 100 µM and the GI50 (IGROV1 ovarian) was 79 µM. The TGI (IGROV1 ovarian) was > 100 µM, the GI50 (NCI-H23 lung) was > 100 µM and the TGI (NCI-H23 lung) was > 100 µM. For the same compound, the GI50 (HCC-2998 colon) was > 100 µM, the TGI (HCC-2998 colon) was > 100 µM and the GI50 (MDA-MB-435) was > 100 µM. For the same compound, the TGI (MDA-MB-435) was > 100 µM, the GI50 (SF-268 CNS) was > 100 µM and the TGI (SF-268 CNS) was > 100 µM. The GI50 (BT-549 breast) was 85.3 µM, the TGI (BT-549 breast) was > 100 µM and the GI50 (OVCAR-5 ovarian) was > 100 µM. The TGI (OVCAR-5 ovarian) was > 100 µM, the GI50 (CAKI-1 renal) was 28 µM and the TGI (CAKI-1 renal) was > 100 µM. The GI50 (OVCAR-8 ovarian) was 76.5 µM, the TGI (OVCAR-8 ovarian) was > 100 µM and the GI50 (786-0 renal) was 72.5 µM. For the same compound, the TGI (786-0 renal) was > 100 µM, the GI50 (CCRF-CEM leukemia) was > 100 µM and the TGI (CCRF-CEM leukemia) was > 100 µM. The GI50 (HS 578T breast) was 47.3 µM, the TGI (HS 578T breast) was > 100 µM and the GI50 (RXF 393 renal) was 30.9 µM. The TGI (RXF 393 renal) was > 100 µM, the GI50 (RPMI-8226 leukemia) was 55.6 µM and the TGI (RPMI-8226 leukemia) was > 100 µM. For the same compound, the GI50 (OVCAR-3 ovarian) was 84.3 µM, the TGI (OVCAR-3 ovarian) was > 100 µM and the GI50 (T-47D breast) was 50.7 µM. The TGI (T-47D breast) was > 100 µM, the GI50 (HT29 colon) was 63.4 µM and the TGI (HT29 colon) was > 100 µM. For the same compound, the GI50 (UO-31 renal) was 43.5 µM, the TGI (UO-31 renal) was > 100 µM and the GI50 (SK-MEL-5 melanoma) was 45.3 µM. The TGI (SK-MEL-5 melanoma) was > 100 µM, the GI50 (MDA-MB-231 breast) was 77.3 µM and the TGI (MDA-MB-231 breast) was > 100 µM. For the same compound, the GI50 (HL-60(TB) leukemia) was 63 µM, the TGI (HL-60(TB) leukemia) was > 100 µM and the GI50 (UACC-257 melanoma) was > 100 µM. The TGI (UACC-257 melanoma) was > 100 µM, the GI50 (SNB-75 CNS) was 44.7 µM and the TGI (SNB-75 CNS) was > 100 µM. For the same compound, the GI50 (MCF7 breast) was 91.8 µM, the TGI (MCF7 breast) was > 100 µM and the GI50 (EKVX NSCLC) was 71.6 µM. For the same compound, the TGI (EKVX NSCLC) was > 100 µM, the GI50 (NCI-H226 lung) was 45.4 µM and the TGI (NCI-H226 lung) was > 100 µM. For the same compound, the GI50 (SK-MEL-28 melanoma) was > 100 µM, the TGI (SK-MEL-28 melanoma) was > 100 µM and the GI50 (K-562 leukemia) was > 100 µM. The TGI (K-562 leukemia) was > 100 µM, the GI50 (SF-295 CNS) was 66.1 µM and the TGI (SF-295 CNS) was > 100 µM. The GI50 (SN12C renal) was > 100 µM, the TGI (SN12C renal) was > 100 µM and the GI50 (U251 CNS) was 88.8 µM. The TGI (U251 CNS) was > 100 µM, the GI50 (MALME-3M melanoma) was > 100 µM and the TGI (MALME-3M melanoma) was > 100 µM. For the same compound, the GI50 (KM12 colon) was > 100 µM and the TGI (KM12 colon) was > 100 µM.
